Patent US8921372B2, “Inhibitors of hepatitis C virus” (Theravance Biopharma R&D IP, LLC, priority 2010, dated 2014)
Read-outs that look alike come from different tables or passages of the source.

What was measured:
[1] = tested on: HCV genotype 1a replicon cell line (APC89; Huh7.5 cell background); assay: HCV Genotype 1a Replicon Assay (NS3-specific protease activity readout); format: cell-based; conditions: Hepatitis C virus
Procedure: Assay 2: HCV Genotype 1a Replicon Assay
The HCV genotype 1a replicon cell line was obtained from Apath LLC (APC89; Huh7.5 cell background). This subgenomic replicon contains the N-terminus of the HCV core protein fused to the neomycin-resistance selectable marker. The EMCV IRES lies downstream and drives expression of the non-structural proteins NS3-NS5B. Compound potencies were determined using the NS3-specific protease activity in lysates as a measurement of compound inhibition of replicon levels.
(§1) Cells were grown at 37° C. in a 5% CO2 humidified incubator in DMEM (Invitrogen) with 10% FBS (HyClone), 1×NEAA (Invitrogen), 1× Pen-Strep (Invitrogen), and 850 μg/mL G418 (Invitrogen). On day 1 of the assay, cells were plated at 15,000 cells/well in black 96-well tissue culture plates (Costar) in 200 μL media lacking G418. Four hours later, once the cells had adhered, the media was removed and replaced with media (no G418) containing dose-responses of test compounds. Compounds were initially diluted in DMSO and then diluted another 200× in media to bring the final DMSO concentration down to 0.5%. The cells were incubated with test compounds for 48 or 72 hours. At the end of the incubation period, media and compound were removed from the plates.
To determine the NS3-specific protease activity in lysates, the cells were lysed at room temperature in 50 μL/well of 50 mM Hepes pH 7.5, 150 mM NaCl, 15% Glycerol, 0.15% Triton X-100, 10 mM DTT for 20 minutes with shaking. 50 μL of an NS3/4a protease-specific FRET substrate (Anaspec RET S1 Cat#22991) was then added to the wells at a final concentration of 15 μM. The plates were incubated at 37° C. for 20 minutes, which corresponds to a timepoint at which the protease activity is still in the linear phase. Protease activity was determined by measuring fluorescence (Excitation: 340 nm; Emission: 509 nm).
To analyze the data, the fluorescence was plotted vs. the compound concentration, and EC50 values were determined from a 4-parameter robust fit model using GraphPad Prism software.

[2] = tested on: HCV genotype 1b replicon cell line (APC144; Huh7 cell background); assay: HCV Genotype 1b Replicon Assay (Renilla luciferase readout); format: cell-based; conditions: Hepatitis C virus, Huh-7; read-out: Genotype 1b (pEC50 class, HCV genotype 1b replicon assay) (converted)
Description: Assay 1: HCV Genotype 1b Replicon Assay
The HCV genotype 1b replicon cell line was obtained from Apath LLC (Brooklyn, N.Y.) (APC144; Huh7 cell background). This subgenomic replicon contains the N-terminus of the HCV core protein fused to the neomycin-resistance selectable marker. The EMCV IRES lies downstream and drives expression of humanized Renilla luciferase fused to the non-structural proteins NS3-NS5B. This cell line was used to determine compound potency using the luciferase activity readout as a measurement of compound inhibition of replicon levels.
as §1, with “500” for “850”, “10,000” for “15,000”, “white” for “black”, “have” for “had”, “48” for “48 or 72”, “plates and the luciferase activity was determined using Promega Renilla-Glo reagents.” for “plates.”
To analyze the data, the luciferase activity was plotted vs. the compound concentration, and EC50 values were determined from a 4-parameter robust fit model with the GraphPad Prism software package (GraphPad Software, Inc., San Diego, Calif.). Results are expressed as the negative decadic logarithm of the EC50 value, pEC50.
Test compounds having a higher pEC50 value in this assay show greater inhibition of HCV genotype 1b replication.

[3] = 72 hour incubation, read-out: Genotype 1a (pEC50 class, HCV genotype 1a replicon assay) (converted)
[4] = compounds incubated for 48 hours, read-out: Genotype 1a (pEC50 class, HCV genotype 1a replicon assay), * results (converted)

| SMILES | EC50 [1, 3] | EC50 [2] | EC50 [1, 4] |
| --- | --- | --- | --- |
| COC(=O)N[C@H](C(=O)N1CCC[C@H]1c1nc(-c2ccc(-c3ccc(NC(=O)c4ccc(N5C[C@H](C)N(C(=O)[C@H]6CC6(C)C)C[C@H]5C)nc4)c(C)n3)cc2)c[nH]1)C(C)C [Example 71, {(S)-1-[(S)-2-(4-{4-[5-({6-[(2R,5S)-4-((S)-2,2-Dimethyl-cyclopropanecarbonyl)-2,5-dimethyl-piperazin-1-yl]-pyridine-3-carbonyl}-amino)-6-methyl-pyridin-2-yl]-phenyl}-1H-imidazol-2-yl)-pyrrolidine-1-carbonyl]-2-methyl-propyl}-carbamic acid methyl ester] | 0.1 to 1 nM | < 0.1 nM | – |
| COC(=O)N[C@H](C(=O)N1CCC[C@H]1c1nc(-c2ccc(-c3cc(F)c(NC(=O)c4ccc(N5CCN(C(=O)c6cc[nH]n6)C[C@H]5C)nc4)cc3OC(F)(F)F)cc2)c[nH]1)C(C)C [Example 27-34] | < 0.1 nM | < 0.1 nM | – |
| COC(=O)N[C@H](C(=O)N1CCC[C@H]1c1nc(-c2ccc(-c3ccc(NC(=O)c4ccc(N5CCN(C(=O)c6c[nH]cn6)C[C@H]5C)nc4)cc3OC(F)(F)F)cc2)c[nH]1)C(C)C [Example 27] | < 0.1 nM | < 0.1 nM | – |
| COC(=O)N[C@H](C(=O)N1CCC[C@H]1c1nc(-c2ccc(-c3ccc(NC(=O)c4ccc(N5CCN(C(=O)C6CC6)CC5)cc4)cc3F)cc2)c[nH]1)C(C)C [Example 8, {(S)-1-[(S)-2-(4-{4′-[4-(4-cycloproanecarbonyl-piperazin-1-yl)-benzoylamino]-2′-fluoro-biphenyl-4-yl}-1H-imidazol-2-yl)-pyrrolidine-1-carbonyl]-2-methyl-propyl}-carbamic acid methyl ester] | 1 to 10 nM | < 0.1 nM | – |
| COCC(=O)N1CCC[C@@]1(C)C(=O)N1CCN(c2ccc(NC(=O)c3ccc(-c4ccc(-c5c[nH]c([C@@H]6CCCN6C(=O)[C@@H](NC(=O)OC)C(C)C)n5)cc4)c(OC(F)(F)F)c3)cn2)[C@H](C)C1 [Example 66] | < 0.1 nM | < 0.1 nM | – |
| COC(=O)N[C@H](C(=O)N1CCC[C@H]1c1nc(-c2ccc(-c3cc(Cl)c(NC(=O)c4ccc(N5C[C@H](C)N(C(=O)c6c[nH]cn6)C[C@H]5C)nc4)cc3C(F)(F)F)cc2)c[nH]1)C(C)C [Example 65] | < 0.1 nM | < 0.1 nM | – |
| CNC(=O)N1CCN(c2ccc(C(=O)Nc3ccc(-c4ccc(-c5nc([C@@H]6CCCN6C(=O)[C@@H](NC(=O)OC)C(C)C)[nH]c5Cl)cc4)cc3)cc2)CC1 [Example 11, {(S)-1-[(S)-2-(5-Chloro-4-{4′-[4-(4-methylcarbamoyl-piperazin-1-yl)-benzoylamino]-biphenyl-4-yl}-1H-imidazol-2-yl)-pyrrolidine-1-carbonyl]-2-methyl-propyl}-carbamic acid methyl ester] | – | < 0.1 nM | 0.1 to 1 nM |
| CNC(=O)N1CCN(c2ccc(C(=O)Nc3cc(F)c(-c4ccc(-c5c[nH]c([C@@H]6CCCN6C(=O)[C@@H](NC(=O)OC)C(C)C)n5)cc4)c(F)c3)cn2)[C@H](C)C1 [Example 43] | 0.1 to 1 nM | < 0.1 nM | – |
| COC(=O)N[C@H](C(=O)N1CCC[C@H]1c1nc(-c2ccc(-c3cc(F)c(NC(=O)c4ccc(N5CCN(C(=O)c6c[nH]cn6)C[C@H]5C)nc4)cc3OC(F)(F)F)cc2)c[nH]1)C(C)C [Example 27-33] | < 0.1 nM | < 0.1 nM | – |
| COC(=O)N[C@H](C(=O)N1CCC[C@H]1c1nc(-c2ccc(-c3ccc(NC(=O)c4ccc(N5C[C@H](C)N(C(=O)[C@H]6CC6(C)C)C[C@H]5C)nc4)cc3C)c(C)c2)c[nH]1)C(C)C [Example 39, [(S)-1-((S)-2-{4-[4′-({6-[(2R,5S)-4-((S)-2,2-Dimethyl-cyclopropanecarbonyl)-2,5-dimethyl-piperazin-1-yl]-pyridine-3-carbonyl}-amino)-2,2′-dimethyl-biphenyl-4-yl]-1H-imidazol-2-yl}-pyrrolidine-1-carbonyl)-2-methyl-propyl]-carbamic acid methyl ester] | < 0.1 nM | < 0.1 nM | – |
| COC(=O)N[C@H](C(=O)N1CCC[C@H]1c1nc(-c2ccc(-c3c(F)cc(NC(=O)c4ccc(N5CCN(C(=O)C6CC6)C[C@H]5C)nc4)cc3F)cc2)c[nH]1)C(C)C [Example 42] | 0.1 to 1 nM | < 0.1 nM | – |
| COC(=O)N[C@H](C(=O)N1CCC[C@H]1c1nc(-c2ccc(-c3cc(F)c(NC(=O)c4ccc(N5CCN(C(=O)[C@]6(C)CCCN6C(=O)[C@@H](NC(=O)OC)C(C)C)C[C@H]5C)nc4)cc3C(F)(F)F)cc2)c[nH]1)C(C)C [Example 52] | < 0.1 nM | < 0.1 nM | – |
| COC(=O)N[C@H](C(=O)N1CCC[C@H]1c1nc(-c2ccc(-c3ccc(NC(=O)c4ccc(N5CCN(S(C)(=O)=O)CC5)cc4)cc3)cc2)c[nH]1)C(C)C [Example 4, {(S)-1-[(S)-2-(4-{4′-[4-(4-Methanesulfonyl-piperazin-1-yl)-benzoylamino]-biphenyl-4-yl}-1H-imidazol-2-yl)-pyrrolidine-1-carbonyl]-2-methyl-propyl}-carbamic acid methyl ester] | – | < 0.1 nM | 10 to 100 nM |
| COC(=O)N[C@H](C(=O)N1CCC[C@H]1c1nc(-c2ccc(-c3ccc(NC(=O)c4ccc(N5CCN(C(=O)C6CC6)CC5)nc4)cc3)cc2)c[nH]1)C(C)C [Example 5, ((S)-1-{(S)-2-[4-(4′-{[6-(4-Cyclopropanecarbonyl-piperazin-1-yl)-pyridine-3-carbonyl]-amino}-biphenyl-4-yl)-1H-imidazol-2-yl]-pyrrolidine-1-carbonyl}-2-methyl-propyl)-carbamic acid methyl ester] | 1 to 10 nM | < 0.1 nM | – |
| COC(=O)N[C@H](C(=O)N1CCC[C@H]1c1nc(-c2ccc(-c3ccc(NC(=O)c4ccc(N5CCN(C(=O)[C@H]6CC6(C)C)C[C@H]5C)nc4)cc3F)c(F)c2)c[nH]1)C(C)C [Example 50, [(S)-1-((S)-2-{4-[4′-({6-[(R)-4-((S)-2,2-dimethyl-cyclopropanecarbonyl)-2-methyl-piperazin-1-yl]-pyridine-3-carbonyl}-amino)-2,2′-difluoro-biphenyl-4-yl]-1H-imidazol-2-yl}-pyrrolidine-1-carbonyl)-2-methyl-propyl]-carbamicacid methyl ester] | < 0.1 nM | < 0.1 nM | – |
| COC(=O)N[C@H](C(=O)N1CCC[C@H]1c1nc(-c2ccc(-c3cc(F)c(NC(=O)c4ccc(N5C[C@H](C)N(C(=O)c6c[nH]cn6)C[C@H]5C)nc4)cc3OC(F)(F)F)cc2)c[nH]1)C(C)C [Example 59] | < 0.1 nM | < 0.1 nM | – |
| CCN(CC)[C@@H](C(=O)N1CCC[C@H]1c1nc(-c2ccc(-c3ccc(NC(=O)c4ccc(N5CCN(C(=O)C6CC6)CC5)cc4)cc3)cc2)c[nH]1)c1ccccc1 [Example 9, 4-(4-Cyclopropanecarbonyl-piperazin-1-yl)-N-(4′-{2-[(S)-1-((R)-2-diethylamino-2-phenyl-acetyl)-pyrrolidin-2-yl]-1H-imidazol-4-yl}-biphenyl-4-yl)-benzamide] | – | < 0.1 nM | 0.1 to 1 nM |
| COC(=O)N[C@H](C(=O)N1CCC[C@H]1c1nc(-c2ccc(-c3ccc(C(=O)Nc4ccc(N5CCN(C(=O)OC(C)(C)C)CC5)cc4)cc3)cc2)c[nH]1)C(C)C [Example 6, 4-{4-[(4′-{2-[(S)-1-((S)-2-Methoxycarbonylamino-3-methyl-butyryl)-pyrrolidin-2-yl]-1H-imidazol-4-yl}-biphenyl-4-carbonyl)-amino]-phenyl}-piperazine-1-carboxylic acid tert-butyl ester] | – | < 0.1 nM | 10 to 100 nM |
